For 20 compounds, EC50 and IC50 results are on record in patent US12459922B2 (Gilead Sciences, Inc., priority 2022, dated 2025).

Each structure is given as a SMILES string.

By EC50 is commonly meant the concentration giving half of the maximal effect. The IC50 is the concentration that inhibits the measured activity by half.

Test [1] relates to endogenous cellular STAT1 (phosphorylated at Tyr701) in NCI-H1373 cells. The test can be described thus: Phospho-STAT1 (Tyr701) LANCE Ultra TR-FRET Detection Assay. Type of test: cell-based. To be noted: Homo sapiens, NCI-H1373, 48 h, phospho-STAT1 (Tyr701) induction, read-out: NH1373 pSTAT1 EC50. A general note: TR-FRET usually uses a lanthanide donor and a delayed reading to cut background.

Test [2] deals with T1, PARP7 (Homo sapiens, UniProt Q7Z3E1).
T1 sequence (Q7Z3E1 1-657): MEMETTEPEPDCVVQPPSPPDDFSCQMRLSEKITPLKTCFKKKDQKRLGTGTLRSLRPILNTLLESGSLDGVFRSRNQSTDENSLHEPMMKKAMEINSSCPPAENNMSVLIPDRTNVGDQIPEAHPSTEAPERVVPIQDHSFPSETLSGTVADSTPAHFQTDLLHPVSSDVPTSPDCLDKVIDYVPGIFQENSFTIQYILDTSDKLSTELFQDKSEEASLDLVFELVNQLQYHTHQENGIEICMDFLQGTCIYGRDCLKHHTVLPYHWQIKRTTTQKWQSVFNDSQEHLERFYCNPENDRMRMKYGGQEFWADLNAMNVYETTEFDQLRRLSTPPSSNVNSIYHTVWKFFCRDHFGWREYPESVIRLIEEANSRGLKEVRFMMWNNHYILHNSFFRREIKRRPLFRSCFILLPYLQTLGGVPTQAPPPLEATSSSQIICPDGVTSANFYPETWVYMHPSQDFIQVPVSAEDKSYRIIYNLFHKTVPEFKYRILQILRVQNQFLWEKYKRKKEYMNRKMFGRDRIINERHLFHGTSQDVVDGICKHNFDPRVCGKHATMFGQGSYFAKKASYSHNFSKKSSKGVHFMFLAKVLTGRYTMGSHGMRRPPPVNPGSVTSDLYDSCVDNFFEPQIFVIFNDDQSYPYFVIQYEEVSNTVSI
In words: Probe Displacement Assay for PARP7 (MSD electrochemiluminescent, biotinylated probe RBNO11147). The settings on record: displacement of biotinylated probe RBNO11147 from PARP7 NAD+-binding site; read-out: MSD ProbeDisp PARP7 IC50.

For `CC[C@@H](CCCn1cnc2cc(-c3ncc(C(F)F)cn3)c(F)cc2c1=O)Nc1cn[nH]c(=O)c1C(F)(F)F` [Example 156, 7-[5-(difluoromethyl)pyrimidin-2-yl]-6-fluoro-3-[(4S)-4-[[6-oxo-5-(trifluoromethyl)-1H-pyridazin-4-yl]amino]hexyl]quinazolin-4-one], the EC50 in test [1] was 22.1 nM. For the same compound, the IC50 in test [2] was determined as 0.29 nM.

On to `C[C@@H](CCCn1ccc2cc(-c3ccc(C4(C(F)(F)F)CC4)cn3)cc(F)c2c1=O)Nc1cn[nH]c(=O)c1C(F)(F)F` [Example 39, 8-fluoro-2-[(4S)-4-[[6-oxo-5-(trifluoromethyl)-1H-pyridazin-4-yl]amino]pentyl]-6-[5-[1-(trifluoromethyl)cyclopropyl]-2-pyridyl]isoquinolin-1-one], for which the EC50 in test [1] is 890 nM. In test [2], the IC50 is 2.5 nM.

For `O=c1[nH]ncc(N[C@@H](CO)CCCn2ccc3cc(-c4ncc(C(F)(F)F)cn4)c(F)c(F)c3c2=O)c1C(F)(F)F` [Example 163, 7,8-difluoro-2-[(4R)-5-hydroxy-4-[[6-oxo-5-(trifluoromethyl)-1H-pyridazin-4-yl]amino]pentyl]-6-[5-(trifluoromethyl)pyrimidin-2-yl]isoquinolin-1-one], the EC50 in test [1] was found to be 62.8 nM. The IC50 in test [2] came to 0.341 nM.

`C[C@@H](CCCn1ccc2cc(-c3ncc(C(F)(F)F)cn3)c(F)cc2c1=O)Nc1cn[nH]c(=O)c1C(F)(F)F` [Example 8, 7-fluoro-2-[(4S)-4-[[6-oxo-5-(trifluoromethyl)-1H-pyridazin-4-yl]amino]pentyl]-6-[5-(trifluoromethyl)pyrimidin-2-yl]isoquinolin-1-one]: in test [1], the 50% effective concentration (EC50) is 19.2 nM. Also, in test [2], the IC50 was 0.2 nM.

Take `Nc1nc(-c2cc3ccn(C[C@@H]4CCC[C@H](Nc5cn[nH]c(=O)c5C(F)(F)F)C4)c(=O)c3cc2F)ncc1C(F)(F)F` [Example 184, 6-[4-amino-5-(trifluoromethyl)pyrimidin-2-yl]-7-fluoro-2-[[(1R,3S)-3-[[6-oxo-5-(trifluoromethyl)-1H-pyridazin-4-yl]amino]cyclohexyl]methyl]isoquinolin-1-one]: the half-maximal effective concentration (EC50) in test [1] turned out to be 1.8 nM. Also, in test [2], the concentration for half-maximal inhibition (IC50) worked out at 0.311 nM.

For the compound `C[C@@H](CCCn1ccc2cc(-c3ncc(C(F)(F)F)c(N4C[C@@H](O)C[C@@H]4C)n3)c(F)cc2c1=O)Nc1cn[nH]c(=O)c1C(F)(F)F` [Example 312, 7-fluoro-6-(4-((2S,4S)-4-hydroxy-2-methylpyrrolidin-1-yl)-5-(trifluoromethyl)pyrimidin-2-yl)-2-((S)-4-((6-oxo-5-(trifluoromethyl)-1,6-dihydropyridazin-4-yl)amino)pentyl)isoquinolin-1(2H)-one], the EC50 in test [1] turned out to be 70 nM. In addition, the IC50 in test [2] came to 0.623 nM.

In the case of `C[C@@H](CCCn1c(=O)[nH]c2cc(-c3ncc(C(F)(F)F)cn3)c(F)cc2c1=O)Nc1cn[nH]c(=O)c1C(F)(F)F` [Example 30, 6-fluoro-3-[(4S)-4-[[6-oxo-5-(trifluoromethyl)-1H-pyridazin-4-yl]amino]pentyl]-7-[5-(trifluoromethyl)pyrimidin-2-yl]-1H-quinazoline-2,4-dione], the EC50 in test [1] came to 18.6 nM. For the same compound, the IC50 in test [2] was 0.3 nM.

Consider `CC[C@@H](CCCn1cnc2cc(-c3ncc(C(F)(F)F)cn3)c(F)cc2c1=O)Nc1cn[nH]c(=O)c1C(F)(F)F` [Example 155, (S)-6-fluoro-3-(4-((6-oxo-5-(trifluoromethyl)-1,6-dihydropyridazin-4-yl)amino)hexyl)-7-(5-(trifluoromethyl)pyrimidin-2-yl)quinazolin-4(3H)-one], for which the EC50 in test [1] was 21.2 nM. Besides, the IC50 in test [2] turned out to be 0.2 nM.

`C[C@@H](CCCn1cnc2cc(-c3ncc(F)cn3)c(F)cc2c1=O)Nc1cn[nH]c(=O)c1C(F)(F)F` [Example 60, 6-fluoro-7-(5-fluoropyrimidin-2-yl)-3-[(4S)-4-[[6-oxo-5-(trifluoromethyl)-1H-pyridazin-4-yl]amino]pentyl]quinazolin-4-one]: the EC50 in test [1] is 772 nM. For the same compound, the IC50 in test [2] came out at 0.897 nM.

In the case of `C[C@@H](CCCn1ccc2cc(-c3nc4ccccn4n3)c(F)cc2c1=O)Nc1cn[nH]c(=O)c1C(F)(F)F` [Example 306, (S)-6-([1,2,4]triazolo[1,5-a]pyridin-2-yl)-7-fluoro-2-(4-((6-oxo-5-(trifluoromethyl)-1,6-dihydropyridazin-4-yl)amino)pentyl)isoquinolin-1(2H)-one], in test [1], the half-maximal effective concentration (EC50) was determined as 2.18 nM. In test [2], the IC50 is 0.21 nM.

Take `C[C@@H](CCCn1ccc2cc(-c3ncc(C(F)(F)F)c(N4C[C@H](O)C[C@@H]4C)n3)c(F)cc2c1=O)Nc1cn[nH]c(=O)c1C(F)(F)F` [Example 313, 7-fluoro-6-(4-((2S,4R)-4-hydroxy-2-methylpyrrolidin-1-yl)-5-(trifluoromethyl)pyrimidin-2-yl)-2-((S)-4-((6-oxo-5-(trifluoromethyl)-1,6-dihydropyridazin-4-yl)amino)pentyl)isoquinolin-1(2H)-one]: the EC50 in test [1] came out at 18.4 nM. Besides, the IC50 in test [2] was determined as 0.192 nM.

For `C[C@@H](CCCn1cnc2cc(-c3ncc(C(F)(F)F)c(N4C[C@@H](O)[C@@H]4C)n3)c(F)cc2c1=O)Nc1cn[nH]c(=O)c1C(F)(F)F` [Example 314, 6-fluoro-7-(4-((2S,3R)-3-hydroxy-2-methylazetidin-1-yl)-5-(trifluoromethyl)pyrimidin-2-yl)-3-((S)-4-((6-oxo-5-(trifluoromethyl)-1,6-dihydropyridazin-4-yl)amino)pentyl)quinazolin-4(3H)-one], the EC50 in test [1] is 6.08 nM. The IC50 in test [2] came to 0.185 nM.

Turning to `C[C@@H](CCCn1cnc2cc(-c3ncc(C(F)(F)F)cn3)c(F)cc2c1=O)Nc1cn[nH]c(=O)c1C(F)(F)F` [Example 29, (S)-6-fluoro-3-(4-((6-oxo-5-(trifluoromethyl)-1,6-dihydropyridazin-4-yl)amino)pentyl)-7-(5-(trifluoromethyl)pyrimidin-2-yl)quinazolin-4(3H)-one], the EC50 in test [1] stood at 31.6 nM. Moreover, in test [2], the IC50 came to 1.6 nM.

In the case of `Cc1cc(NC2CC2)nc(-c2cc3ccn(CCC[C@H](C)Nc4cn[nH]c(=O)c4C(F)(F)F)c(=O)c3cc2F)n1` [Example 310, (S)-6-(4-(cyclopropylamino)-6-methylpyrimidin-2-yl)-7-fluoro-2-(4-((6-oxo-5-(trifluoromethyl)-1,6-dihydropyridazin-4-yl)amino)pentyl)isoquinolin-1(2H)-one], the EC50 in test [1] came to 910 nM. The IC50 in test [2] was determined as 1.3 nM.

With `Nc1nc(-c2cc3ccn(CCC[C@H](COC(F)F)Nc4cn[nH]c(=O)c4C(F)(F)F)c(=O)c3cc2F)ccc1C(F)(F)F` [Example 380, (R)-6-(6-amino-5-(trifluoromethyl)pyridin-2-yl)-2-(5-(difluoromethoxy)-4-((6-oxo-5-(trifluoromethyl)-1,6-dihydropyridazin-4-yl)amino)pentyl)-7-fluoroisoquinolin-1(2H)-one], the EC50 in test [1] was found to be 4.88 nM. For the same compound, the IC50 in test [2] was found to be 0.211 nM.

For the compound `O=c1[nH]ncc(N[C@H](CCCn2ccc3cc(-c4ncc(C(F)F)cn4)c(F)cc3c2=O)COC(F)F)c1C(F)(F)F` [Example 377, (R)-2-(5-(difluoromethoxy)-4-((6-oxo-5-(trifluoromethyl)-1,6-dihydropyridazin-4-yl)amino)pentyl)-6-(5-(difluoromethyl)pyrimidin-2-yl)-7-fluoroisoquinolin-1(2H)-one], the 50% effective concentration (EC50) in test [1] is 1.15 nM. For the same compound, the IC50 in test [2] came out at 0.179 nM.

On to `C[C@@H](CCCn1ccc2cc(-c3ncc(C(F)(F)F)cn3)c(Cl)cc2c1=O)Nc1cn[nH]c(=O)c1C(F)(F)F` [Example 44, 7-chloro-2-[(4S)-4-[[6-oxo-5-(trifluoromethyl)-1H-pyridazin-4-yl]amino]pentyl]-6-[5-(trifluoromethyl)pyrimidin-2-yl]isoquinolin-1-one], for which, in test [1], the EC50 was determined as 10000 nM. For the same compound, the IC50 in test [2] amounted to 0.67 nM.

For `CC(=O)c1c(N[C@@H](C)CCCn2ccc3cc(-c4ncc(C(F)(F)F)cn4)c(F)cc3c2=O)cn[nH]c1=O` [Example 16, (S)-2-(4-((5-acetyl-6-oxo-1,6-dihydropyridazin-4-yl)amino)pentyl)-7-fluoro-6-(5-(trifluoromethyl)pyrimidin-2-yl)isoquinolin-1(2H)-one], the EC50 in test [1] is 25.2 nM. Besides, in test [2], the IC50 came out at 0.2 nM.

Turning to `C[C@@H](CCCn1ccc2cc(-c3ncc(C#N)cn3)c(F)cc2c1=O)Nc1cn[nH]c(=O)c1C(F)(F)F` [Example 24, (S)-2-(7-fluoro-1-oxo-2-(4-((6-oxo-5-(trifluoromethyl)-1,6-dihydropyridazin-4-yl)amino)pentyl)-1,2-dihydroisoquinolin-6-yl)pyrimidine-5-carbonitrile], the EC50 in test [1] came to 220 nM. For the same compound, the IC50 in test [2] was 0.9 nM.

In the case of `C[C@@H](CCCn1ccc2cc(-c3ccccn3)c(F)cc2c1=O)Nc1cn[nH]c(=O)c1C(F)(F)F` [Example 31, 7-fluoro-2-[(4S)-4-[[6-oxo-5-(trifluoromethyl)-1H-pyridazin-4-yl]amino]pentyl]-6-(2-pyridyl)isoquinolin-1-one], in test [1], the EC50 was 2180 nM. In addition, in test [2], the IC50 came out at 0.2 nM.
